Laboratory results as given in US20250352658A1, “COMBINATION THERAPY USING ANTIBODY-DRUG CONJUGATES” (ADC THERAPEUTICS SA, priority 2021, published 2025).
Square brackets hold non-standard residues; d marks the D form. Peptide text beside a SMILES is read from it. * marks the point of attachment. Dolaproine = CO[C@@H]([C@@H]1CCCN1)[C@@H](C)C(=O)O; Dil = CC[C@H](C)[C@H](NC)[C@@H](CC(=O)O)OC; X1 = C[C@@H](N*)[C@@H](O)c1ccccc1; NMeV = CN[C@H](C(=O)O)C(C)C

System: TMD8 cells
Assay: CellTiterGlo viability assay, SG3199 and MMAE combination, TMD8
Format: cell-based
Settings: for Fa (fraction affected) / CI (combination index): 24 hours
Experimental: We tested a combination of the warheads alone used in CD19xADC (PBD SG3199) and CD79bxADC (monomethyl auristatin E (MMAE)). This was performed essentially as per Example 1, in TMD8 cells. Cells were seeded at a density of 50,000 cells/mL. […]
Cells were incubated for 24 hours and then viability was measured with CellTiterGlo assay.
For analysis of the results, data were first blank corrected (average of blank of the 3 replicates was subtracted from each data value). For GraphPad analysis, each replicate was normalized over the untreated cells (average of the 3 replicates). Data were analysed by GraphPad Prism to generate a dose response curve with Log drug concentration on X-axis and cell viability (%) on Y-axis. For CalcuSyn analysis, the average of the 3 replicates was corrected over the untreated cells.

[1] = SG3199 0.06 pM + MMAE 0.08 ng/ml
[2] = SG3199 0.06 pM + MMAE 0.2 ng/ml
[3] = SG3199 0.06 pM + MMAE 0.6 ng/ml
[4] = SG3199 0.06 pM + MMAE 1.9 ng/ml
[5] = SG3199 0.06 pM + MMAE 5.6 ng/ml
[6] = SG3199 0.23 pM + MMAE 0.08 ng/ml
[7] = SG3199 0.23 pM + MMAE 0.2 ng/ml
[8] = SG3199 0.23 pM + MMAE 0.6 ng/ml
[9] = SG3199 0.23 pM + MMAE 1.9 ng/ml
[10] = SG3199 0.23 pM + MMAE 5.6 ng/ml
[11] = SG3199 0.90 pM + MMAE 0.08 ng/ml
[12] = SG3199 0.90 pM + MMAE 0.2 ng/ml
[13] = SG3199 0.90 pM + MMAE 0.6 ng/ml
[14] = SG3199 0.90 pM + MMAE 1.9 ng/ml
[15] = SG3199 0.90 pM + MMAE 5.6 ng/ml
[16] = SG3199 3.6 pM + MMAE 0.08 ng/ml
[17] = SG3199 14.4 pM + MMAE 0.08 ng/ml
[18] = SG3199 14.4 pM + MMAE 0.2 ng/ml
[19] = SG3199 14.4 pM + MMAE 0.6 ng/ml
[20] = SG3199 14.4 pM + MMAE 1.9 ng/ml
[21] = SG3199 14.4 pM + MMAE 5.6 ng/ml
[22] = SG3199 57.5 pM + MMAE 0.08 ng/ml
[23] = SG3199 57.5 pM + MMAE 0.2 ng/ml
[24] = SG3199 57.5 pM + MMAE 0.6 ng/ml
[25] = SG3199 57.5 pM + MMAE 1.9 ng/ml
[26] = SG3199 57.5 pM + MMAE 5.6 ng/ml
[27] = SG3199 230 pM + MMAE 0.08 ng/ml

## CC[C@H](C)[C@@H]([C@@H](CC(=O)N1CCC[C@H]1[C@H](OC)[C@@H](C)C(=O)N[C@H](C)[C@@H](O)c1ccccc1)OC)N(C)C(=O)[C@@H](NC(=O)[C@@H](NC)C(C)C)C(C)C [MMAE, monomethyl auristatin E, reference compound] (H-[NMeV]V[Dil][Dolaproine]-X1)
MMAE 0.08 ng/ml alone (SG3199 0)
  Fa (fraction affected): 0.11
MMAE 0.2 ng/ml alone (SG3199 0)
  Fa (fraction affected): 0.17
MMAE 0.6 ng/ml alone (SG3199 0)
  Fa (fraction affected): 0.27
MMAE 1.9 ng/ml alone (SG3199 0)
  Fa (fraction affected): 0.29
MMAE 5.6 ng/ml alone (SG3199 0)
  Fa (fraction affected): 0.38

## CC[C@H](C)[C@@H]([C@@H](CC(=O)N1CCC[C@H]1[C@H](OC)[C@@H](C)C(=O)N[C@H](C)[C@@H](O)c1ccccc1)OC)N(C)C(=O)[C@@H](NC(=O)[C@@H](NC)C(C)C)C(C)C.COc1cc2c(cc1OCCCCCOc1cc3c(cc1OC)C(=O)N1C=C(C)C[C@H]1C=N3)N=C[C@@H]1CC(C)=CN1C2=O [SG3199 + MMAE] (H-[NMeV]V[Dil][Dolaproine]-X1)
[1]
  CI (combination index): 1.65
  Fa (fraction affected): 0.12
[2]
  CI (combination index): 2.06
  Fa (fraction affected): 0.13
[3]
  CI (combination index): 0.53
  Fa (fraction affected): 0.27
[4]
  CI (combination index): 0.79
  Fa (fraction affected): 0.32
[5]
  CI (combination index): 1.23
  Fa (fraction affected): 0.38
[6]
  CI (combination index): 434.19
  Fa (fraction affected): 0.05
[7]
  CI (combination index): 2.22
  Fa (fraction affected): 0.14
[8]
  CI (combination index): 0.40
  Fa (fraction affected): 0.29
[9]
  CI (combination index): 1.18
  Fa (fraction affected): 0.29
[10]
  CI (combination index): 0.98
  Fa (fraction affected): 0.40
[11]
  CI (combination index): 0.58
  Fa (fraction affected): 0.19
[12]
  CI (combination index): 2.08
  Fa (fraction affected): 0.16
[13]
  CI (combination index): 0.29
  Fa (fraction affected): 0.31
[14]
  CI (combination index): 0.83
  Fa (fraction affected): 0.32
[15]
  CI (combination index): 0.85
  Fa (fraction affected): 0.41
[16]
  CI (combination index): 5.16
  Fa (fraction affected): 0.16
SG3199 3.6 pM + MMAE 0.2 ng/ml
  CI (combination index): 69.07
  Fa (fraction affected): 0.11
SG3199 3.6 pM + MMAE 0.6 ng/ml
  CI (combination index): 1.26
  Fa (fraction affected): 0.23
SG3199 3.6 pM + MMAE 1.9 ng/ml
  CI (combination index): 1.36
  Fa (fraction affected): 0.28
SG3199 3.6 pM + MMAE 5.6 ng/ml
  CI (combination index): 1.93
  Fa (fraction affected): 0.34
[17]
  CI (combination index): 12.16
  Fa (fraction affected): 0.17
[18]
  CI (combination index): 18.45
  Fa (fraction affected): 0.16
[19]
  CI (combination index): 0.60
  Fa (fraction affected): 0.29
[20]
  CI (combination index): 1.32
  Fa (fraction affected): 0.29
[21]
  CI (combination index): 1.12
  Fa (fraction affected): 0.39
[22]
  CI (combination index): 0.22
  Fa (fraction affected): 0.34
[23]
  CI (combination index): 0.39
  Fa (fraction affected): 0.33
[24]
  CI (combination index): 0.23
  Fa (fraction affected): 0.37
[25]
  CI (combination index): 0.30
  Fa (fraction affected): 0.42
[26]
  CI (combination index): 0.37
  Fa (fraction affected): 0.49
[27]
  CI (combination index): 0.03
  Fa (fraction affected): 0.47
SG3199 230 pM + MMAE 0.2 ng/ml
  CI (combination index): 0.02
  Fa (fraction affected): 0.51
SG3199 230 pM + MMAE 0.6 ng/ml
  CI (combination index): 0.03
  Fa (fraction affected): 0.54
SG3199 230 pM + MMAE 1.9 ng/ml
  CI (combination index): 0.04
  Fa (fraction affected): 0.59
SG3199 230 pM + MMAE 5.6 ng/ml
  CI (combination index): 0.09
  Fa (fraction affected): 0.62
TMD8, 24 hours, <0.9 indicates synergy
  median Chou-Talalay combination index (CI): 0.85
